Assay results: patent US20120177693A1, “DEEP LUNG PULMONARY DELIVERY OF TREPROSTINIL” (Aradigm Corporation, priority 2008, published 2012)
Values joined by “and” are separate entries in the source; they are usually repeats but may differ in a detail not shown here. Equal entries are not always repeated.

Test: Gamma scintigraphy of 99mTc-DTPA radiolabeled treprostinil sodium inhaled via AERx Essence System or Nebu-Tec Optineb nebulizer, two-way crossover, 14 healthy male subjects
Format: in vivo, human
Conditions: for Calculated Lung Dose: monosodium salt; for Dose (calculated dose to lung): Median
Excerpt: This was an open label study conducted in a single-center, using a randomized, two-way crossover design. Sixteen healthy adult male subjects were to be enrolled to receive study treatments. Upon provision of written informed consent, each study candidate underwent a pre-study evaluation and screening to determine eligibility to participate.
On each of two dosing days, eligible subjects underwent dosing with ^99mTc-labeled treprostinil sodium using either the AERx Essence System or the Nebu-Tec Optineb nebulizer. Following their initial study dose, subjects underwent a washout period of approximately 48 hours before completing a second (crossover) study dose.
Immediately following each study dose, subjects underwent gamma scintigraphy and multiple samplings of venous blood to characterize treprostinil lung deposition and plasma pharmacokinetics.
Subjects also underwent a Krypton-81m (^81mKr) gas ventilation imaging procedure. This procedure could have been performed on any dosing day followed by a 30 minute washout before any of the aerosol dosing procedures, if there were logistical/scheduling problems, ventilation imaging could have been done after dosing. Alternatively the ^81mKr ventilation scan could have been performed on a separate visit. Additionally transmission images were also acquired this could have been performed on any dosing day prior to any of the aerosol dosing procedures or on a separate visit
A single “bulk” treprostinil sodium formulation (600 μg/mL) was used for both the Nebu-Tec Optineb nebulizer and the AERx Essence. The bulk drug solutions were diluted by the addition of ^99mTc-DTPA (2000 MBq/mL) at a ratio of 19:1, i.e. 0.05 mL of ^99mTc-DTPA was added to 0.950 mL of bulk drug solution. Each mL of the radiolabeled drug solutions therefore contained 100 MBq of ^99mTc-DTPA and 570 μg of treprostinil. The radiolabel ^99mTc as ^99mTc-DTPA was acquired from an approved supplier (i.e., the Medical Physics Department, University Hospital of Wales, Heath, Cardiff [Manufacturers License Number: MS/IMP18523]).
In this study, the radiolabel marker (^99mTc-DTPA) deposition profiles obtained following administration of a radiolabeled treprostinil sodium formulation will be evaluated using gamma to assess the performance for the two delivery systems. Gamma scintigraphy offers a precise and accurate method of evaluating the deposition of an inhaled radiolabeled aerosol in the oropharynx and lung.
To compare the emitted dose, delivered lung dose, and the central-to-peripheral (sC/P) lung deposition of radiolabeled treprostinil sodium delivered via the AERx Essence System versus the Nebu-Tec Optineb nebulizer using gamma scintigraphy.
In addition the following secondary efficacy variables were determined, the dose (μg) of treprostinil deposited in the lung, the percent dose (emitted and loaded) of radiolabeled treprostinil sodium in the oropharyngeal region from both devices, the percent loaded dose remaining in both devices and associated equipment e.g. mouthpiece.
Scintigraphic data were used to determine the fraction of the loaded dose delivered to the lung which was subsequently utilised to estimate the lung dose in terms of μg of Treprostinil. For AERx, the calculation of lung dose was derived by normalising the emitted dose to lung for the fraction (%) of the loaded dose retained post-administration i.e. within the device and dosage forms. The actual dose within the AERx strips (a single dose consisted of two strips) was calculated from the nominal treprostinil concentration adjusted for the actual concentration determined by HPLC assay of the stock radiolabeled drug solutions on each dosing day (see Table 14.2.1.5).
The Optineb device contained a drug reservoir (nebuliser cup) from which each dose (six separate puffs) was metered. To determine the dose available to the subject an in vitro test to collect a single emitted dose (ED) was performed for each device following subject dosing.

For `CCCCC[C@H](O)CC[C@@H]1[C@H]2Cc3cccc(OCC(=O)[O-])c3C[C@H]2C[C@H]1O.[Na+]` [treprostinil, (1R,2R,3aS,9aS)-[[2,3,3a,4,9,9a-Hexahydro-2-hydroxyl-1-[(3S)-3-hydroxyoctyl]-1H-benz[f]inden-5-yl]oxy]acetic acid monosodium salt], the “Greater treprostinil lung dose for AERx than for the nebulizer” value (AERx vs nebulizer) was 20%, the “Calculated Lung Dose” value (via AERx, Max, listed as Treprostinil) was 30.76 µg and the “Calculated Lung Dose” value (via AERx, Max) was 30.756 µg. For the same compound, the “Calculated Lung Dose” value (via AERx, Mean, listed as Treprostinil) was 26.07 µg, the “Calculated Lung Dose” value (via AERx, Mean) was 26.07 µg and 26.072 µg and the “Dose (calculated dose to lung)” value (via AERx) was 27.383 µg. For the same compound, the “Calculated Lung Dose” value (via AERx, Min, listed as Treprostinil) was 12.77 µg, the “Calculated Lung Dose” value (via AERx, Min) was 12.770 µg and the “Calculated Lung Dose” value (via Optineb, Max, listed as Treprostinil) was 30.69 µg. The “Calculated Lung Dose” value (via Optineb, Max) was 30.691 µg, the “Calculated Lung Dose” value (via Optineb, Mean, listed as Treprostinil) was 19.58 µg and the “Calculated Lung Dose” value (via Optineb, Mean) was 19.58 µg and 19.579 µg. For the same compound, the “Dose (calculated dose to lung)” value (via Optineb) was 18.470 µg, the “Calculated Lung Dose” value (via Optineb, Min, listed as Treprostinil) was 9.30 µg and the “Calculated Lung Dose” value (via Optineb, Min) was 9.296 µg.
